Measurements: US10562902B2, “IRAK4 inhibitor and use thereof” (BEIJING HANMI PHARMACEUTICAL CO., LTD., priority 2015, dated 2020)
pIC50: −log10 of the molar value.

Biological target: IRAK4 kinase (Homo sapiens (Human), UniProt Q9NWZ3)
Assay: IRAK4 kinase activity inhibition assay
Type: biochemical
Conditions: ADP-Glo kinase assay, 10 μM ATP, MBP substrate
Experimental: IRAK4 kinase (purchased from Life Technologies, Cat. No.: PR5612U) was diluted to 2 folds of the final concentration (the final concentration is […]) with reaction buffer (40 mM Tris-HC1, pH 7.5; 20 mM MgCl2; 0.1 mg/mL BSA; 1 mM DTT), and added to a 384-well plate at 5 μL/well. The test drugs were 10-fold serial diluted from 10 μM to set six concentration points and added to the test wells of the 384-well plate at 2.5 μL/well. After incubation for 10 min at 25° C., 10 μM of ATP and 0.1 μg/μL of an enzyme reaction substrate, myelin basic protein MBP (purchased from Signal Chem, Cat. No.: M42-51N) were added at 2.5 μL/well, and reacted at 25° C. for 60 minutes. After the reaction was completed, the kinase activity assay was performed using the ADP-Glo™ kinase assay kit (purchased from Promega, Cat. No.: V9102) according to the manufacture's instruction, i.e., 10 μL of ADP-Glo reaction reagent was first added and reacted at 25° C. for 40 minutes, 10 μL of the reaction mixture was taken and mixed with 10 μL of ADP-Glo detection reagent, and reacted at 25° C. for 30 minutes. The kinase activity was then detected, and the IC50 values of the test drugs were calculated.

Chain of IRAK4 kinase (Q9NWZ3 whole entry): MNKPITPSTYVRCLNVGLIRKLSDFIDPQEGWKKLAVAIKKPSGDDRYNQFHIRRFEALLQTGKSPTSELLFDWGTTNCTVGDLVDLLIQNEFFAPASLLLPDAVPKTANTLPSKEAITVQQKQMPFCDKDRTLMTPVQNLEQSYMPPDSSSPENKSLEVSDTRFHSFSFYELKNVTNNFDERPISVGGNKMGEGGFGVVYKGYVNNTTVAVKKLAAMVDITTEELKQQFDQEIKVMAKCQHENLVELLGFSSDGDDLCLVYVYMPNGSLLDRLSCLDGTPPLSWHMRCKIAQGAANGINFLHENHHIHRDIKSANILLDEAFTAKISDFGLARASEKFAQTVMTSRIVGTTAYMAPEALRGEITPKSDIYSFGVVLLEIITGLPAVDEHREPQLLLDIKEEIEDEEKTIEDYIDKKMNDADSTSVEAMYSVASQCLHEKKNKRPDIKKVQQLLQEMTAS

SMILES | pIC50
CC(=O)N1CCC(Oc2nc(Nc3cc(C)ns3)nc3ccn(-c4cnn(C)c4)c23)CC1 [Example 73] | 6.00 to 7.00
Cc1cc(Nc2nc(OC3CCSCC3)c3c(ccn3-c3cnn(C)c3)n2)sn1 [Example 75] | 6.00 to 7.00
Cc1cc(Nc2nc(OC3CCS(=O)(=O)CC3)c3c(ccn3-c3cnn(C)c3)n2)sn1 [Example 76] | 6.00 to 7.00
Cn1cc(-n2ccc3nc(Nc4ccc[nH]4)nc(O[C@H]4CCOC4)c32)cn1 [Example 77] | ≥ 7.00
Cn1cc(-n2ccc3nc(Nc4cccs4)nc(O[C@H]4CCOC4)c32)cn1 [Example 78] | ≥ 7.00
Cn1cc(-n2ccc3nc(Nc4ccc(C#N)s4)nc(O[C@H]4CCOC4)c32)cn1 [Example 79] | 6.00 to 7.00
Cn1cc(-n2ccc3nc(Nc4cc(C#N)cs4)nc(O[C@H]4CCOC4)c32)cn1 [Example 80] | 6.00 to 7.00
Cn1cc(-n2ccc3nc(Nc4ccsc4)nc(O[C@H]4CCOC4)c32)cn1 [Example 81] | 6.00 to 7.00
Cc1cc(Nc2nc(O[C@H]3CCOC3)c3c(ccn3-c3cnn(C)c3)n2)cs1 [Example 82] | 6.00 to 7.00
Cc1cc(Nc2nc(O[C@H]3CCOC3)c3c(ccn3-c3cnn(C)c3)n2)on1 [Example 83] | 6.00 to 7.00
Cc1cc(Nc2nc(O[C@H]3CCOC3)c3c(ccn3-c3cnn(C)c3)n2)[nH]n1 [Example 84] | 6.00 to 7.00
Cn1cc(-n2ccc3nc(Nc4csc5ccccc45)nc(O[C@H]4CCOC4)c32)cn1 [Example 85] | 5.00 to 6.00
Cc1cc(Nc2nc(OC3CCOCC3)c3c(ccn3-c3ccn(C)c3)n2)sn1 [Example 86] | 6.00 to 7.00
Cc1cc(Nc2nc(O[C@H]3CCOC3)c3c(ccn3-c3ccoc3)n2)sn1 [Example 87] | ≥ 7.00
Cc1cc(Nc2nc(OC3CCOCC3)c3c(ccn3-c3ccoc3)n2)sn1 [Example 88] | 6.00 to 7.00
Cc1cc(Nc2nc(OC3CCOCC3)c3c(ccn3-c3ccsc3)n2)sn1 [Example 89] | 6.00 to 7.00
CCn1cc(-n2ccc3nc(Nc4cc(C)ns4)nc(OC4CCOCC4)c32)cn1 [Example 90] | 6.00 to 7.00
COCCn1cc(-n2ccc3nc(Nc4cc(C)ns4)nc(OC4CCOCC4)c32)cn1 [Example 91] | 6.00 to 7.00
Cc1cc(Nc2nc(OC3CCOCC3)c3c(ccn3-c3ccccc3)n2)sn1 [Example 92] | 6.00 to 7.00
COc1ccccc1-n1ccc2nc(Nc3cc(C)ns3)nc(OC3CCOCC3)c21 [Example 93] | 5.00 to 6.00
COc1cccc(-n2ccc3nc(Nc4cc(C)ns4)nc(OC4CCOCC4)c32)c1 [Example 94] | 5.00 to 6.00
COc1ccc(-n2ccc3nc(Nc4cc(C)ns4)nc(OC4CCOCC4)c32)cc1 [Example 95] | 5.00 to 6.00
Cc1cc(Nc2nc(OC3CCOCC3)c3c(ccn3-c3cccc(N(C)C)c3)n2)sn1 [Example 96] | 5.00 to 6.00
Cc1cc(Nc2nc(OC3CCOCC3)c3c(ccn3-c3ccncc3)n2)sn1 [Example 97] | 6.00 to 7.00

Further lines, results first:

pIC50 | SMILES
6.00 to 7.00 | Cc1cc(Nc2nc(OC3CCOCC3)c3c(ccn3-c3cccnc3)n2)sn1 [Example 98]
6.00 to 7.00 | COc1cncc(-n2ccc3nc(Nc4cc(C)ns4)nc(OC4CCOCC4)c32)c1 [Example 99]
6.00 to 7.00 | Cc1cc(Nc2nc(O[C@H]3CCOC3)c3c(ccn3-c3ccncc3)n2)sn1 [Example 100]
6.00 to 7.00 | COc1cc(-n2ccc3nc(Nc4cc(C)ns4)nc(OC4CCOCC4)c32)ccn1 [Example 101]
6.00 to 7.00 | Cc1cc(Nc2nc(OC3CCOCC3)c3c(ccn3-c3ccnnc3)n2)sn1 [Example 102]
6.00 to 7.00 | Cc1cc(Nc2nc(OC3CCOCC3)c3c(ccn3-c3cncnc3)n2)sn1 [Example 103]
6.00 to 7.00 | Cc1cc(Nc2nc(OC3CCOCC3)c3c(ccn3-c3cccc4c3OCCO4)n2)sn1 [Example 104]
≥ 7.00 | Cn1cc(Nc2nc(O[C@H]3CCOC3)c3c(ccn3-c3cnn(C)c3)n2)cn1 [Example 105, (S)-(1-methyl-1H-pyrazol-4-yl)-[5-(1-methyl-1H-pyrazol-4-yl)-4-(tetrahydrofuran-3-yloxy)-5H-pyrrolo[3,2-d]pyrimidin-2-yl]amine]
≥ 7.00 | Cn1cc(-n2ccc3nc(Nc4cn[nH]c4)nc(O[C@H]4CCOC4)c32)cn1 [Example 106]
≥ 7.00 | Cn1cc(-n2ccc3nc(Nc4cnn(CCF)c4)nc(O[C@H]4CCOC4)c32)cn1 [Example 107]
≥ 7.00 | Cn1cc(-n2ccc3nc(Nc4cnn(CCO)c4)nc(O[C@H]4CCOC4)c32)cn1 [Example 108]
6.00 to 7.00 | Cn1cc(-n2ccc3nc(Nc4cnn(C5CCCCC5)c4)nc(O[C@H]4CCOC4)c32)cn1 [Example 109]
≥ 7.00 | Cn1cc(-n2ccc3nc(Nc4cnn(C5CCOCC5)c4)nc(O[C@H]4CCOC4)c32)cn1 [Example 110]
≥ 7.00 | CN1CCC(n2cc(Nc3nc(O[C@H]4CCOC4)c4c(ccn4-c4cnn(C)c4)n3)cn2)CC1 [Example 111]
6.00 to 7.00 | Cn1cc(-n2ccc3nc(Nc4cnn(-c5ccccc5)c4)nc(O[C@H]4CCOC4)c32)cn1 [Example 112]
≥ 7.00 | Cn1cc(-n2ccc3nc(Nc4cnn(-c5ccncc5)c4)nc(O[C@H]4CCOC4)c32)cn1 [Example 113]
≥ 7.00 | Cn1cc(-n2ccc3nc(Nc4cnn(-c5cccnc5)c4)nc(O[C@H]4CCOC4)c32)cn1 [Example 114]

pIC50 | SMILES
6.00 to 7.00 | Cn1cc(-n2ccc3nc(Nc4cnoc4)nc(O[C@H]4CCOC4)c32)cn1 [Example 115]
6.00 to 7.00 | Cn1cc(-n2ccc3nc(Nc4ccccc4)nc(O[C@H]4CCOC4)c32)cn1 [Example 116]
5.00 to 6.00 | Cn1cc(-n2ccc3nc(Nc4cccnc4)nc(O[C@H]4CCOC4)c32)cn1 [Example 117]
6.00 to 7.00 | Cn1cc(-n2ccc3nc(Nc4ccc(N5CCOCC5)cc4)nc(O[C@H]4CCOC4)c32)cn1 [Example 118]
6.00 to 7.00 | Cn1cc(-n2ccc3nc(Nc4ccc(C(=O)N5CCOCC5)cc4)nc(O[C@H]4CCOC4)c32)cn1 [Example 119]
≥ 7.00 | Cn1cc(-n2ccc3nc(Nc4ccc5c(c4)CNC5=O)nc(O[C@H]4CCOC4)c32)cn1 [Example 120]
≥ 7.00 | CN1Cc2cc(Nc3nc(O[C@H]4CCOC4)c4c(ccn4-c4cnn(C)c4)n3)ccc2C1=O [Example 121]
6.00 to 7.00 | Cn1cc(-n2ccc3nc(Nc4ccc5c(c4)C(=O)NC5)nc(O[C@H]4CCOC4)c32)cn1 [Example 122]
≥ 7.00 | Cn1cc(-n2ccc3nc(Nc4ccc5[nH]ncc5c4)nc(O[C@H]4CCOC4)c32)cn1 [Example 123]
6.00 to 7.00 | Cn1cc(-n2ccc3nc(Nc4ccc5cn[nH]c5c4)nc(O[C@H]4CCOC4)c32)cn1 [Example 124]
6.00 to 7.00 | Cn1cc(-n2ccc3nc(Nc4ccc5ncsc5c4)nc(O[C@H]4CCOC4)c32)cn1 [Example 125]
≥ 7.00 | CNC(=O)c1csc(Nc2nc(O[C@H]3CCOC3)c3c(ccn3-c3ccoc3)n2)c1 [Example 126]
≥ 7.00 | CCNC(=O)c1csc(Nc2nc(OC(C)C)c3c(ccn3-c3cnn(C)c3)n2)c1 [Example 127]
6.00 to 7.00 | CCNC(=O)c1csc(Nc2nc(OC3CCCC3)c3c(ccn3-c3cnn(C)c3)n2)c1 [Example 128]
6.00 to 7.00 | CCNC(=O)c1csc(Nc2nc(OC3CCCCC3)c3c(ccn3-c3cnn(C)c3)n2)c1 [Example 129]
≥ 7.00 | CCNC(=O)c1csc(Nc2nc(OCCOC)c3c(ccn3-c3cnn(C)c3)n2)c1 [Example 130]
≥ 7.00 | CCNC(=O)c1csc(Nc2nc(O[C@@H]3CCOC3)c3c(ccn3-c3cnn(C)c3)n2)c1 [Example 131]
